How the values were obtained:
Mexican bean beetle [1] = experiment: Initial contact activity, leaf dip, Mexican bean beetle; assay type: in vivo, Epilachna varivestis Muls.; conditions: Epilachna varivestis, foliar, 48 h, initial, BB, 48 hours, read-out: Percent Kill
How it was run: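 Compound dispersed from acetone into water with surfactant (1250 ppm stock), diluted to various concentrations. Bean beetle on dipped pinto bean leaves, plum curculio sprayed directly in dishes, flour beetle placed on pre-sprayed dried dishes; 48 h at 80° F, 50% RH, then percent kill counted.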

Southern armyworm [2] = experiment: Initial contact activity, leaf dip, southern armyworm; assay type: in vivo, Spodoptera eridania [Cram.]; conditions: Spodoptera eridania, foliar, 48 h, initial, AW, 48 hours, read-out: Percent Kill
Pea aphid [3] = experiment: Residual (7-day) contact activity, pea aphid; assay type: in vivo, Acyrthosiphon pisum [Harris]; conditions: Acyrthosiphon pisum, 168 h, residual 7-day, PA, read-out: Percent Kill
Granary Weevil [4] = experiment: Initial contact activity, granary weevil; assay type: in vivo; conditions: Sitophilus granarius, 48 h, initial, GW, 48 hours, read-out: Percent Kill
Two-spotted spider mite [5] = experiment: Residual (7-day) contact activity, two-spotted spider mite; assay type: in vivo, Tetranychus urticae Koch; conditions: Tetranychus urticae, 168 h, residual 7-day, SM, read-out: Percent Kill
How it was run: (§1)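 Treated surfaces were dried and weathered under normal light and air for 7 days before organisms were introduced. Southern armyworm and mites on dipped pinto bean leaves; milkweed bug and plum curculio in sprayed glass containers. Percent kill counted after 48 h exposure at 80° F, 50% RH.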

Confused flour beetle [6] = experiment: Residual (7-day) contact activity, confused flour beetle; assay type: in vivo, Tribolium confusum duVal; conditions: Tribolium confusum, 168 h, residual 7-day, FB, read-out: Percent Kill
Procedure: (§2) Initial Contact Activity: One half gram of test compound was dissolved in 40 ml of acetone and this solution was dispersed in 360 ml of water containing one drop of isooctylphenyl polyethoxyethanol. Aliquots of this solution, which corresponds to 1250 ppm of active ingredient, were diluted with an appropriate amount of water to provide solutions containing various concentrations of active ingredient. Test organisms and techniques were as follows: The activity against the Mexican bean beetle (Epilachna varivestis Muls.) and the southern armyworm (Spodoptera eridania [Cram.]) was evaluated by dipping the leaves of pinto bean plants into the test solution and infesting the leaves with the appropriate immature-form insects when the foiliage had dried; the activity against the pea aphid (Acyrthosiphon pisum [Harris]) was evaluated on broad bean plants whose leaves were dipped before infestation with adult aphids; the activity against two-sotted spider mites (Tetranychus urticae Koch) was evaluated on pinto bean plants whose leaves were dipped after infestation with adult mites; the activity against the milkweed bug (Oncopeltus fasciatus [Dallas]), and the plum curculio (Conotrachelus nenuphar [Herbst]) was evaluated by spraying the test solutions into glass dishes or jars containing the adult insects; the activity against the confused flour beetle (Tribolium confusum duVal) was evaluated by introducing the insects into glass dishes which had been previously sprayed with test solution and allowed to dry. All organisms in the test were maintained in a holding room at 80° F and 50% relative humidity for an exposure period of 48 hours. At the end of this time, the dead and living insects or mites were counted, and the percent kill was calculated.
Residual Contact Activity: The residual contact activity of the compounds was determined on the same organisms using the techniques described above, except that in each case the treated surface was allowed to dry and was exposed to normal light and air for seven days before introduction of the mites or insects.

Milkweed bug [7] = experiment: Residual (7-day) contact activity, milkweed bug; assay type: in vivo, Oncopeltus fasciatus [Dallas]; conditions: Oncopeltus fasciatus, 168 h, residual 7-day, MWB, read-out: Percent Kill
How it was run: as §1

Granary Weevil [8] = experiment: Residual (7-day) contact activity, granary weevil; assay type: in vivo; conditions: Sitophilus granarius, 168 h, residual 7-day, GW, read-out: Percent Kill
Confused flour beetle [9] = experiment: Initial contact activity, sprayed dishes, confused flour beetle; assay type: in vivo, Tribolium confusum duVal; conditions: Tribolium confusum, initial, FB, 48 hours, read-out: Percent Kill
Procedure: as §2

Southern armyworm [10] = experiment: Systemic activity, soil-watering, southern armyworm; assay type: in vivo, Spodoptera eridania [Cram.]; conditions: Spodoptera eridania, 48 h, systemic, AW, read-out: Percent Kill
How it was run: (§3)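 Compound in acetone/water with surfactant, diluted to target concentrations; 25 ml poured onto soil of potted host plants without touching foliage. After three days for translocation, leaves infested with beetle or armyworm larvae, aphids or mites; living and dead counted two days later.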

Milkweed bug [11] = experiment: Initial contact activity, spray, milkweed bug; assay type: in vivo, Oncopeltus fasciatus [Dallas]; conditions: Oncopeltus fasciatus, 48 h, initial, MWB, 48 hours, read-out: Percent Kill
How it was run: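 Various active-ingredient concentrations, diluted with water from 1250 ppm. Contact exposure by dip, direct spray or dried residue depending on species; scored as percent kill at 48 h.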

Pea aphid [12] = experiment: Initial contact activity, leaf dip, pea aphid; assay type: in vivo, Acyrthosiphon pisum [Harris]; conditions: Acyrthosiphon pisum, foliar, 48 h, initial, PA, 48 hours, read-out: Percent Kill
Mexican bean beetle [13] = experiment: Systemic activity, soil-watering, Mexican bean beetle; assay type: in vivo, Epilachna varivestis Muls.; conditions: Epilachna varivestis, 48 h, systemic, BB, read-out: Percent Kill
How it was run: as §3

Two-spotted spider mite [14] = experiment: Systemic activity, soil-watering, two-spotted spider mite; assay type: in vivo, Tetranychus urticae Koch; conditions: Tetranychus urticae, 48 h, systemic, SM, read-out: Percent Kill
How it was run: as §3

Mexican bean beetle [15] = experiment: Residual (7-day) contact activity, Mexican bean beetle; assay type: in vivo, Epilachna varivestis Muls.; conditions: Epilachna varivestis, 168 h, residual 7-day, BB, read-out: Percent Kill

## CSC(C)(C)C=NOC(=O)N(C)SN1CCOCC1 [Example II, 2-methyl-2-(methylthio)propanol O-[(N-methyl-N-morpholinosulfenyl)carbamoyl]oxime]
Mexican bean beetle [1]
  mortality at 156 ppm: 100%
  mortality at 312 ppm: 100%
  mortality at 625 ppm: 100%
  mortality at 1250 ppm: 100%
Southern armyworm [2]
  mortality at 156 ppm: 0%
  mortality at 312 ppm: 0%
  mortality at 625 ppm: 70%
  mortality at 1250 ppm: 100%
Pea aphid [3]
  mortality at 156 ppm: 0%
  mortality at 312 ppm: 0%
  mortality at 1250 ppm: 93%
Granary Weevil [4]
  mortality at 156 ppm: 100%
  mortality at 312 ppm: 100%
  mortality at 1250 ppm: 100%
Two-spotted spider mite [5]
  mortality at 156 ppm: 76%
  mortality at 312 ppm: 93%
  mortality at 1250 ppm: 97%
Confused flour beetle [6]
  mortality at 312 ppm: 0%
  mortality at 1250 ppm: 2.5%
Milkweed bug [7]
  mortality at 156 ppm: 100%
  mortality at 312 ppm: 100%
  mortality at 1250 ppm: 100%
Granary Weevil [8]
  mortality at 312 ppm: 20%
  mortality at 1250 ppm: 100%
Confused flour beetle [9]
  mortality at 156 ppm: 5%
  mortality at 312 ppm: 51%
  mortality at 1250 ppm: 80%
Southern armyworm [10]
  mortality at 312 ppm: 100%
  mortality at 625 ppm: 100%
Milkweed bug [11]
  mortality at 10 ppm: 25%
  mortality at 39 ppm: 100%
  mortality at 156 ppm: 100%
  mortality at 1250 ppm: 100%
Pea aphid [12]
  mortality at 10 ppm: 78%
  mortality at 39 ppm: 100%
  mortality at 156 ppm: 100%
  mortality at 1250 ppm: 100%
Mexican bean beetle [13]
  mortality at 39 ppm: 58%
  mortality at 156 ppm: 100%
Two-spotted spider mite [14]
  mortality at 5 ppm: 1.4%
  mortality at 10 ppm: 38%
Two-spotted spider mite [14]; 39 PPM
  mortality at 39 ppm: 69%
Mexican bean beetle [15]
  mortality at 312 ppm: 88%
  mortality at 1250 ppm: 100%

## CCCCN(CCCC)SN(C)C(=O)ON=CC(C)(C)SC [Example III, 2-methyl-2-(methylthio)propanal O-[(dibutylaminosulfenyl)(methyl)carbamoyl]oxime]
Mexican bean beetle [1]
  mortality at 156 ppm: 40%
  mortality at 312 ppm: 63%
  mortality at 625 ppm: 95%
  mortality at 1250 ppm: 100%
Southern armyworm [2]
  mortality at 156 ppm: 0%
  mortality at 312 ppm: 0%
  mortality at 625 ppm: 0%
  mortality at 1250 ppm: 20%
Pea aphid [3]
  mortality at 156 ppm: 0%
  mortality at 312 ppm: 0%
  mortality at 1250 ppm: 0%
Granary Weevil [4]
  mortality at 156 ppm: 100%
  mortality at 312 ppm: 100%
  mortality at 1250 ppm: 100%
Two-spotted spider mite [5]
  mortality at 156 ppm: 18%
  mortality at 312 ppm: 45%
  mortality at 1250 ppm: 100%
Confused flour beetle [6]
  mortality at 312 ppm: 0%
  mortality at 1250 ppm: 0%
Milkweed bug [7]
  mortality at 156 ppm: 20%
  mortality at 312 ppm: 70%
  mortality at 1250 ppm: 100%
Granary Weevil [8]
  mortality at 312 ppm: 0%
  mortality at 1250 ppm: 17%
Confused flour beetle [9]
  mortality at 156 ppm: 0%
  mortality at 312 ppm: 7.5%
  mortality at 1250 ppm: 70%
Southern armyworm [10]
  mortality at 312 ppm: 0%
  mortality at 625 ppm: 68%
Milkweed bug [11]
  mortality at 10 ppm: 5%
  mortality at 39 ppm: 16%
  mortality at 156 ppm: 100%
  mortality at 1250 ppm: 100%
Pea aphid [12]
  mortality at 10 ppm: 53%
  mortality at 39 ppm: 19%
  mortality at 156 ppm: 100%
  mortality at 1250 ppm: 100%
Mexican bean beetle [13]
  mortality at 39 ppm: 20%
  mortality at 156 ppm: 100%
Two-spotted spider mite [14]; 2.5 PPM
  mortality at 2.5 ppm: 0.9%
Two-spotted spider mite [14]
  mortality at 5 ppm: 0%
  mortality at 10 ppm: 0.7%
Mexican bean beetle [15]
  mortality at 312 ppm: 0%
  mortality at 1250 ppm: 92%

— patent publication US4108991A, “N-aminosulfenyl derivatives of aldicarb” (priority 1976, dated 1978)
